According to ChEMBL document CHEMBL1141584, “Synthesis, biological evaluation and molecular modelling studies of methyleneimidazole substituted biaryls as inhibitors of human 17alpha-hydroxylase-17,20-lyase (CYP17). Part I: Heterocyclic modifications of the core structure” (Bioorg Med Chem, 2008):

Columns and labels:
[1] = molecular target: T1, Steroid 17-alpha-hydroxylase/17,20 lyase (Homo sapiens, UniProt P05093); test: Inhibition of human CYP17 expressed in Escherichia coli co-expressed with NADPH-P450 reductase at 0.2 uM
T1 sequence (P05093 whole entry): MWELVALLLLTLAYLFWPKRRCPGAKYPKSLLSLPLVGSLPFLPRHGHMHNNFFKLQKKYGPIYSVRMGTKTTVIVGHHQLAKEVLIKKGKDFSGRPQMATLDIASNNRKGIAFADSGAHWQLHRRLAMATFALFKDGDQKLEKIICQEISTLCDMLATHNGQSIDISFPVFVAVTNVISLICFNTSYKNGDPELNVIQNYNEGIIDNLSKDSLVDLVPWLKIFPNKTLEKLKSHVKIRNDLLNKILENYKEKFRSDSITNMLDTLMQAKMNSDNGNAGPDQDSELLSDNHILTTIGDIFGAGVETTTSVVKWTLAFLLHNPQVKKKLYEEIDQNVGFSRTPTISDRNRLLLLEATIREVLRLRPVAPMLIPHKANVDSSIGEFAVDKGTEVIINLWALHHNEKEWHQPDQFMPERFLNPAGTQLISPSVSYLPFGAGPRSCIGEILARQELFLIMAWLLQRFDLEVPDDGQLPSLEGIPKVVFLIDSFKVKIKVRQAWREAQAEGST

[2] = molecular target: T1, Steroid 17-alpha-hydroxylase/17,20 lyase; test: Inhibition of human CYP17 expressed in Escherichia coli co-expressed with NADPH-P450 reductase at 2 uM
CYP1A2 [3] = molecular target: T2, CYP1A2 (Homo sapiens, UniProt P05177); test: Inhibition of recombinant CYP1A2 at 1 uM; type: ADME
T2 sequence (P05177 whole entry): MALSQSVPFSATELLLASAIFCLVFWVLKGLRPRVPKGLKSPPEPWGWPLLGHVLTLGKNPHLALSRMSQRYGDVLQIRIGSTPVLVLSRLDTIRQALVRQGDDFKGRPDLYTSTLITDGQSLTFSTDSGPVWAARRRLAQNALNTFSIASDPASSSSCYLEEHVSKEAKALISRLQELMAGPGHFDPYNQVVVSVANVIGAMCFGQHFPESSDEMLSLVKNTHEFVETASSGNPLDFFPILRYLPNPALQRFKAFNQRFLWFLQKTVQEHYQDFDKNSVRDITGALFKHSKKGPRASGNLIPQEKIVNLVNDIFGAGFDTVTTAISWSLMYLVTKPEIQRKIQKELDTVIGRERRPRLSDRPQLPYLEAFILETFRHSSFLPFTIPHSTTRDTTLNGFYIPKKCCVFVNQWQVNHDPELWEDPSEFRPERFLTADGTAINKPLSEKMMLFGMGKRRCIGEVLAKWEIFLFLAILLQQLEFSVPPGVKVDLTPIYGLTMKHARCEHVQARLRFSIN

CYP1A2 [4] = molecular target: T2, CYP1A2; test: Inhibition of recombinant CYP1A2 at 10 uM; type: ADME
CYP2C9 [5] = molecular target: T3, CYP2C9 (Homo sapiens, UniProt P11712); test: Inhibition of recombinant CYP2C9 at 1 uM; type: ADME
T3 sequence (P11712 whole entry): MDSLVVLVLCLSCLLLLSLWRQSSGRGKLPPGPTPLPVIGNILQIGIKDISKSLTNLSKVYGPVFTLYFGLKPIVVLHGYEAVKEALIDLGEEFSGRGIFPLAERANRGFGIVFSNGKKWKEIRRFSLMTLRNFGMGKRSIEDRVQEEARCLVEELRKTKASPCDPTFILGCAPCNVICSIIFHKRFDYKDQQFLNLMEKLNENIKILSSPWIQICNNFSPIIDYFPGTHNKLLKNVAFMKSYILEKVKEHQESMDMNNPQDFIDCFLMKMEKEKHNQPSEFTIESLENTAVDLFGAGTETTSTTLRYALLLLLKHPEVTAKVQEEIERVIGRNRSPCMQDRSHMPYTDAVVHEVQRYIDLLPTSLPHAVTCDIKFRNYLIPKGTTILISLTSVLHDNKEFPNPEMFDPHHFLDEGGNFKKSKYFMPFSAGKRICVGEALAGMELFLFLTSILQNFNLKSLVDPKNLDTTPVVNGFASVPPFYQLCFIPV

CYP2C9 [6] = molecular target: T3, CYP2C9; test: Inhibition of recombinant CYP2C9 at 10 uM; type: ADME
CYP2C19 [7] = molecular target: T4, CYP2C19 (Homo sapiens, UniProt P33261); test: Inhibition of recombinant CYP2C19 at 1 uM; type: ADME
T4 sequence (P33261 whole entry): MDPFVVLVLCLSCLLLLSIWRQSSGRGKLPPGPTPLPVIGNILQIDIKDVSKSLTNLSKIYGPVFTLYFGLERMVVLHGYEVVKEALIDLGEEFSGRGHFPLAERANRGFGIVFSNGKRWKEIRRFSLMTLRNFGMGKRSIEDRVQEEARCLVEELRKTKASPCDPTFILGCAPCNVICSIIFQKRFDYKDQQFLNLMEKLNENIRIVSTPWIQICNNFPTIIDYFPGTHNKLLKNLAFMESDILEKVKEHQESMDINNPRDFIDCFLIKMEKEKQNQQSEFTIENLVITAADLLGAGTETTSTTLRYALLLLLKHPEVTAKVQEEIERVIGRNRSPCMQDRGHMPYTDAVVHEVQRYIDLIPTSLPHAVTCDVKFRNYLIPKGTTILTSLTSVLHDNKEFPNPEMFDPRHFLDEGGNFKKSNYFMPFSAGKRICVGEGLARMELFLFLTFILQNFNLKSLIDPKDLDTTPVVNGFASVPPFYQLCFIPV

CYP2C19 [8] = molecular target: T4, CYP2C19; test: Inhibition of recombinant CYP2C19 at 10 uM; type: ADME
[9] = molecular target: T1, Steroid 17-alpha-hydroxylase/17,20 lyase; test: Inhibition of human CYP17 expressed in Escherichia coli co-expressed with NADPH-P450 reductase
CYP3A4 [10] = molecular target: T5, CYP3A4 (Homo sapiens, UniProt P08684); test: Inhibition of recombinant CYP3A4 at 10 uM; type: ADME
T5 sequence (P08684 whole entry): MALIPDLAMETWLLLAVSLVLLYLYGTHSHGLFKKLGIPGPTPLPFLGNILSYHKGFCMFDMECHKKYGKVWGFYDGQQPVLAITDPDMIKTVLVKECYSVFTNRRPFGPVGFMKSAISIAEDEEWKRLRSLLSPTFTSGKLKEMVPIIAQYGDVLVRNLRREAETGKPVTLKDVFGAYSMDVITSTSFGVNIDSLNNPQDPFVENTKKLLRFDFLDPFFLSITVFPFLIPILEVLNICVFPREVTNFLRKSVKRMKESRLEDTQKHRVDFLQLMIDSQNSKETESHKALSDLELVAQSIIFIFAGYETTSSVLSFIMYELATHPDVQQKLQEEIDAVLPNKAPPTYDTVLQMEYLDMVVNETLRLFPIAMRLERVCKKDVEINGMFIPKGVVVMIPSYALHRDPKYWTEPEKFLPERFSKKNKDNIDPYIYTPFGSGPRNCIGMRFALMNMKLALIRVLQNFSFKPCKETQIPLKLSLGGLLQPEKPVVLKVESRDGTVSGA

CYP3A4 [11] = molecular target: T5, CYP3A4; test: Inhibition of recombinant CYP3A4 at 1 uM; type: ADME
CYP2B6 [12] = molecular target: T6, CYP2B6 (Homo sapiens, UniProt P20813); test: Inhibition of recombinant CYP2B6 at 1 uM; type: ADME
T6 sequence (P20813 whole entry): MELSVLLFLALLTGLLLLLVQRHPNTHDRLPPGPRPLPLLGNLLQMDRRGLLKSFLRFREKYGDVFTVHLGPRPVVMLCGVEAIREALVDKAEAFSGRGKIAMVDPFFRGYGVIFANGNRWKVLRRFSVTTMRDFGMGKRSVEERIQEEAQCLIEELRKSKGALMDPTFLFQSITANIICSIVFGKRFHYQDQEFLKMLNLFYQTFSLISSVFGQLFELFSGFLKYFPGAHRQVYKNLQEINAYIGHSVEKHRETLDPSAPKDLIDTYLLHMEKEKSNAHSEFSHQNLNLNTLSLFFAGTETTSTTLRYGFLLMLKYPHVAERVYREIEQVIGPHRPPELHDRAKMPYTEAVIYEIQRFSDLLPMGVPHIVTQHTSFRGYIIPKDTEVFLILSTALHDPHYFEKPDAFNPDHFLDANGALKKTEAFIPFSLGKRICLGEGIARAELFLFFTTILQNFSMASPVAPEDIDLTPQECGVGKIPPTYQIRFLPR

CYP2B6 [13] = molecular target: T6, CYP2B6; test: Inhibition of recombinant CYP2B6 at 10 uM; type: ADME
CYP2D6 [14] = molecular target: T7, CYP2D6 (Homo sapiens, UniProt P10635); test: Inhibition of recombinant CYP2D6 at 1 uM; type: ADME
T7 sequence (P10635 whole entry): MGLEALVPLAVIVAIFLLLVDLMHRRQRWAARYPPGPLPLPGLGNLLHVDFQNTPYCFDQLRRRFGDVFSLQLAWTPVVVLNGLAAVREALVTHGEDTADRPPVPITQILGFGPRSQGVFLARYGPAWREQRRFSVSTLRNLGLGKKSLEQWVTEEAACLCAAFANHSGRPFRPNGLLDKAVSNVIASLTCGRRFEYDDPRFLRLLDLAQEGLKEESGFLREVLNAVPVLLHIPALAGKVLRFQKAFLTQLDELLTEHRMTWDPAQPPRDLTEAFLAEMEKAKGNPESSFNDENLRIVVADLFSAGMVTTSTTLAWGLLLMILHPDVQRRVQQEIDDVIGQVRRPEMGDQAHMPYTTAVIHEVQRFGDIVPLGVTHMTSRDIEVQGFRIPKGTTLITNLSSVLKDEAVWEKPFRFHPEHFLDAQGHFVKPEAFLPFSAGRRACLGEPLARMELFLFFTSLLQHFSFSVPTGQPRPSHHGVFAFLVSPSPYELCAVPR

CYP2D6 [15] = molecular target: T7, CYP2D6; test: Inhibition of recombinant CYP2D6 at 10 uM; type: ADME
[16] = Terminal half life in Wistar rat plasma at 50 mg/kg, po; type: ADME, organism-based; set-up: dose 50 mg/kg, route oral
[17] = Tmax in Wistar rat at 50 mg/kg, po; type: ADME, organism-based; set-up: dose 50 mg/kg, route oral; conditions: in vivo
[18] = Cmax in Wistar rat at 50 mg/kg, po; type: ADME, organism-based; set-up: dose 50 mg/kg, route oral; conditions: in vivo
[19] = AUC (0 to infinity) in Wistar rat at 50 mg/kg, po; type: ADME, organism-based; set-up: time infinity, dose 50 mg/kg, route oral; conditions: plasma
[20] = Total body clearance in Wistar rat at 50 mg/kg, po; type: ADME, organism-based; set-up: dose 50 mg/kg, route oral; conditions: in vivo
[21] = molecular target: T8, Steroid 17-alpha-hydroxylase/17,20 lyase (Rattus norvegicus, UniProt P11715); test: Inhibition of Sprague-Dawley rat testicular CYP17
T8 sequence (P11715 whole entry): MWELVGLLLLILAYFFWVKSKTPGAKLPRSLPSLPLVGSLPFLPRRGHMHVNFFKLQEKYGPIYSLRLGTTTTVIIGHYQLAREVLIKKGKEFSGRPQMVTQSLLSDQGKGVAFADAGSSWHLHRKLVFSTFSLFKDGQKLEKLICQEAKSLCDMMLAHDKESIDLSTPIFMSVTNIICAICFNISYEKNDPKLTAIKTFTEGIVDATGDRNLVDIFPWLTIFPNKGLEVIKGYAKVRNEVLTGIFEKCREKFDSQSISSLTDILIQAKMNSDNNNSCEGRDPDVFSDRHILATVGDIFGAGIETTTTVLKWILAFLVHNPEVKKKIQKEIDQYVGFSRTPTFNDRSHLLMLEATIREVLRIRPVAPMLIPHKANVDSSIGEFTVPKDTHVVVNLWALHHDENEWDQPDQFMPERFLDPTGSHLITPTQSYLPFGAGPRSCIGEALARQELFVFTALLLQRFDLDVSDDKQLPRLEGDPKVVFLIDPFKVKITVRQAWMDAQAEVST

Compound: COc1ccc(-c2ccc(Cn3ccnc3)cn2)cc1OC
- inhibition at 0.2 µM [1]: 1%
- inhibition at 2 µM [2]: 2%

Compound: COc1ccc(-c2ccc(Cn3ccnc3)cn2)cc1
- inhibition at 0.2 µM [1]: 0%
- inhibition at 2 µM [2]: 0%

Compound: COc1cccc(-c2ccc(Cn3ccnc3)cn2)c1
- inhibition at 0.2 µM [1]: 0%
- inhibition at 2 µM [2]: 1%

Compound: CCC(c1ccc(-c2ccc(SC)s2)cc1)n1ccnc1 (centres undefined)
- inhibition at 0.2 µM [1]: 2%
- inhibition at 2 µM [2]: 3%

Compound: CSc1ccc(-c2ccc(Cn3ccnc3)cc2)s1
- inhibition at 0.2 µM [1]: 3%
- inhibition at 2 µM [2]: 35%

Compound: CC(c1ccc(N2CCOCC2)cc1)n1ccnc1 (centres undefined)
- inhibition at 0.2 µM [1]: 5%
- inhibition at 2 µM [2]: 12%

Compound: Fc1ccc(-c2ccc(Cn3ccnc3)nc2)cc1
- inhibition at 0.2 µM [1]: 0%
- inhibition at 2 µM [2]: 2%

Compound: Fc1ccc(-c2ccc(Cn3ccnc3)cc2)cn1
- inhibition at 0.2 µM [1]: 4%
- inhibition at 2 µM [2]: 13%

Compound: ClCc1ccc(-c2ccc(Cn3ccnc3)cc2)cn1
- inhibition at 0.2 µM [1]: 9%
- inhibition at 2 µM [2]: 24%

Compound: COc1ccc(-c2csc(Cn3ccnc3)c2)cc1OC
- inhibition at 0.2 µM [1]: 0%
- inhibition at 2 µM [2]: 14%

Compound: CCC(c1cc(-c2ccc(F)c(F)c2)cs1)n1ccnc1 (centres undefined)
- inhibition at 0.2 µM [1]: 17%
- inhibition at 2 µM [2]: 68%
- inhibition at 1 µM (CYP1A2 [3]): 93%
- inhibition at 10 µM (CYP1A2 [4]): 96%
- inhibition at 1 µM (CYP2C9 [5]): 94%
- inhibition at 10 µM (CYP2C9 [6]): 100%
- inhibition at 1 µM (CYP2C19 [7]): 95%
- inhibition at 10 µM (CYP2C19 [8]): 97%

Compound: Fc1ccc(-c2ccc(Cn3ccnc3)cn2)cc1
- inhibition at 0.2 µM [1]: 5%
- inhibition at 2 µM [2]: 5%

Compound: Nc1cccc(-c2ccc(Cn3ccnc3)cn2)c1
- inhibition at 0.2 µM [1]: 2%
- inhibition at 2 µM [2]: 3%

Compound: c1cn(Cc2ccc(-c3ccoc3)cc2)cn1
- inhibition at 0.2 µM [1]: 3%
- inhibition at 2 µM [2]: 29%

Compound: COc1cccc(-c2csc(Cn3ccnc3)c2)c1
- inhibition at 0.2 µM [1]: 0%
- inhibition at 2 µM [2]: 24%

Compound: COc1ccccc1-c1ccc(Cn2ccnc2)cn1
- inhibition at 0.2 µM [1]: 0%
- inhibition at 2 µM [2]: 5%

Compound: Fc1ccc(-c2csc(Cn3ccnc3)c2)cc1F
- inhibition at 0.2 µM [1]: 7%
- inhibition at 2 µM [2]: 25%

Compound: Fc1ccc(-c2ccc(Cn3ccnc3)cn2)cc1F
- inhibition at 0.2 µM [1]: 0%
- inhibition at 2 µM [2]: 0%

Compound: CC(C)C(O)(c1ccc(-c2ccsc2)cc1)c1c[nH]cn1 (centres undefined)
- inhibition at 0.2 µM [1]: 7%
- inhibition at 2 µM [2]: 49%

Compound: CCC(c1ccc(-c2cscc2C)cc1)n1ccnc1 (centres undefined)
- inhibition at 0.2 µM [1]: 27%
- inhibition at 2 µM [2]: 84%
- IC50 [9]: 584 nM

Compound: c1cn(Cc2ccc(-c3cncnc3)cc2)cn1
- inhibition at 0.2 µM [1]: 5%
- inhibition at 2 µM [2]: 3%

Compound: Cc1cscc1-c1ccc(Cn2ccnc2)cc1
- inhibition at 0.2 µM [1]: 0%
- inhibition at 2 µM [2]: 27%

Compound: c1ccc(-c2csc(Cn3ccnc3)c2)cc1
- inhibition at 0.2 µM [1]: 0%
- inhibition at 2 µM [2]: 21%

Compound: CCC(c1ccc(-c2cscc2C)cc1F)n1ccnc1 (centres undefined)
- inhibition at 0.2 µM [1]: 41%
- inhibition at 2 µM [2]: 92%
- inhibition at 10 µM (CYP3A4 [10]): 97%
- IC50 [9]: 236 nM
- inhibition at 1 µM (CYP3A4 [11]): 88%

Compound: CCC(c1ccc(-c2ccsc2Cl)cc1)n1ccnc1 (centres undefined)
- inhibition at 0.2 µM [1]: 40%
- inhibition at 2 µM [2]: 85%
- inhibition at 10 µM (CYP3A4 [10]): 97%
- IC50 [9]: 263 nM
- inhibition at 1 µM (CYP3A4 [11]): 87%

Compound: COc1ccc(-c2csc(Cn3ccnc3)c2)cc1
- inhibition at 0.2 µM [1]: 0%
- inhibition at 2 µM [2]: 13%

Compound: c1cncc(-c2ccc(Cn3ccnc3)cc2)c1
- inhibition at 0.2 µM [1]: 2%
- inhibition at 2 µM [2]: 14%

Compound: Fc1ccc(-c2csc(Cn3ccnc3)c2)cc1
- inhibition at 0.2 µM [1]: 0%
- inhibition at 2 µM [2]: 20%

Compound: c1ccc(-c2ccc(Cn3ccnc3)cn2)cc1
- inhibition at 0.2 µM [1]: 0%
- inhibition at 2 µM [2]: 4%

Compound: C[C@]12CC[C@H](O)CC1=CC[C@@H]1[C@@H]2CC[C@]2(C)C(c3cccnc3)=CC[C@@H]12 [ABIRATERONE]
- inhibition at 10 µM (CYP3A4 [10]): 25%
- inhibition at 10 µM (CYP2C19 [8]): 21%
- inhibition at 1 µM (CYP2B6 [12]): 2%
- inhibition at 10 µM (CYP2B6 [13]): 11%
- inhibition at 1 µM (CYP2D6 [14]): 7%
- inhibition at 10 µM (CYP2D6 [15]): 7%
- half-life [16]: 1.6 h
- Tmax [17]: 2 h
- Cmax [18]: 592 ng/mL
- AUC(0-inf) [19]: 4020 ng·h/mL
- CL/F [20]: 187 mL/min/kg
- IC50 [21]: 220 nM
- inhibition at 1 µM (CYP3A4 [11]): 4%
